Laboratory results taken from patent US20120244567A1, “HUMAN EMBRYONIC STEM CELLS FOR HIGH THROUGHOUT DRUG SCREENING” (BUCK INSTITUTE FOR RESEARCH ON AGING, priority 2009, published 2012).
Structures can show the parent of a compound that is named as a salt.

Test system: NSCs
Conditions: enriched in treated NSCs
Description: RNAs isolated from NSCs and neurons with and without drug treatments were hybridized to Illumina HumanRef-8 BeadChip (Illumina, Inc., San Diego, Calif., performed by Microarray core facility at the Burnham Institute for Medical Research). The Illumina array data were normalized by the quantile method, and then transformed log 2 ratio values for a zero mean for expression values of each gene across all samples. The statistical and bioinformatics analyses were conducted by using R and the bioconductor package (www.bioconductor.org). The gene set enrichment analysis was conducted using the GSEA software (www.broad.mit.edu/gsea).
The comparative results are then measured by a non-parametric, running sum statistic termed the enrichment score. The enrichment score significance is assessed by 1,000 permutation tests to compute the enrichment p-value.

## CCCCc1oc2ccccc2c1C(=O)c1cc(I)c(OCCN(CC)CC)c(I)c1 [Amiodarone Hydrochloride]
  Nes: Endopeptidase Activity: 1.466
  Nes: Enzyme Binding: 0.9684
  Nes: Enzyme Inhibitor Activity: 1.362
  Nes: Enzyme Regulator Activity: 1.305
  Nes: Exonuclease Activity: 1.423
  Nes: Gated Channel Activity: 0.8726
  Nes: General Rna Polymerase Ii Transcription Factor Activity: 0.772
  Nes: Growth Factor Binding: 1.135
  Nes: Gtpase Activator Activity: 1.186
  Nes: Gtpase Binding: 0.9586
  Nes: Gtpase Regulator Activity: 1.412
  Nes: Guanyl Nucleotide Exchange Factor Activity: 1.287
  Nes: Hematopoietin Interferon Class D200 Domain Cytokine Receptor Activity: 0.7947
  Nes: Hormone Receptor Binding: 0.621
  Nes: Hydro Lyase Activity: 0.5564
  Nes: Hydrolase Activity Acting On Ester Bonds: 1.181
  Nes: Hydrolase Activity Acting On Glycosyl Bonds: 1.049
  Nes: Hydrolase Activity Hydrolyzing O Glycosyl Compounds: 1.219
  Nes: Inorganic Cation Transmembrane Transporter Activity: 0.6802
  Nes: Ion Channel Activity: 1.255
  Nes: Ion Transmembrane Transporter Activity: 1.185
  Nes: Isomerase Activity: 1.154
  Nes: Kinase Binding: 0.6301
  Nes: Ligase Activity: 0.4673
  Nes: Ligase Activity Forming Carbon Nitrogen Bonds: 0.6937
  Nes: Lyase Activity: 1.018
  Nes: Metal Ion Transmembrane Transporter Activity: 1.036
  Nes: Methyltransferase Activity: 0.9044
  Nes: Molecular Adaptor Activity: 1.189
  Nes: Monovalent Inorganic Cation Transmembrane Transporter Activity: 0.7857
  Nes: Motor Activity: 1.105
  Nes: Mrna Binding: 1.006
  Nes: Nuclease Activity: 0.9393
  Nes: Nucleotide Binding: 0.8932
  Nes: Oxidoreductase Activity: 0.9865
  Nes: Oxidoreductase Activity Acting On Ch Oh Group Of Donors: 0.8656
  Nes: Oxidoreductase Activity Go 0016705: 1.545
  Nes: Peptidase Activity: 1.4
  Nes: Phosphatase Regulator Activity: 0.456
  Nes: Phosphoprotein Phosphatase Activity: 1.51
  Nes: Phosphoric Diester Hydrolase Activity: 1.244
  Nes: Phosphoric Ester Hydrolase Activity: 1.31
  Nes: Phosphoric Monoester Hydrolase Activity: 1.31
  Nes: Protease Inhibitor Activity: 1.558
  Nes: Protein C Terminus Binding: 0.6675
  Nes: Protein Complex Binding: 1.312
  Nes: Protein Domain Specific Binding: 0.8643
  Nes: Protein Kinase Activity: 0.8772
  Nes: Protein Kinase Binding: 0.7501
  Nes: Protein Serine Threonine Kinase Activity: 0.8269
  Nes: Protein Serine Threonine Phosphatase Activity: 0.4942
  Nes: Protein Tyrosine Kinase Activity: 0.7818
  Nes: Protein Tyrosine Phosphatase Activity: 1.461
  Nes: Purine Nucleotide Binding: 0.8873
  Nes: Purine Ribonucleotide Binding: 0.9034
  Nes: Ras Gtpase Activator Activity: 0.9812
  Nes: Receptor Signaling Protein Activity: 0.7803
  Nes: Rho Gtpase Activator Activity: 0.9664
  Nes: Ribonuclease Activity: 0.4876
  Nes: Rna Splicing Factor Activity Transesterification Mechanism: 0.9542
  Nes: S Adenosylmethionine Dependent Methyltransferase Activity: 0.9978
  Nes: Secondary Active Transmembrane Transporter Activity: 1.221
  Nes: Sequence Specific Dna Binding: 0.8244
  Nes: Serine Hydrolase Activity: 1.672
  Nes: Serine Type Peptidase Activity: 1.65
  Nes: Sh3 Sh2 Adaptor Activity: 1.235
  Nes: Single Stranded Dna Binding: 0.9015
  Nes: Small Conjugating Protein Ligase Activity: 0.717
  Nes: Small Gtpase Binding: 0.9179
  Nes: Small Gtpase Regulator Activity: 1.109
  Nes: Small Protein Conjugating Enzyme Activity: 0.7314
  Nes: Specific Rna Polymerase Ii Transcription Factor Activity: 1.539
  Nes: Structural Constituent Of Cytoskeleton: 1.041
  Nes: Structural Constituent Of Muscle: 1.106
  Nes: Structural Molecule Activity: 0.7432
  Nes: Structure Specific Dna Binding: 0.7614
  Nes: Substrate Specific Channel Activity: 1.3
  Nes: Substrate Specific Transmembrane Transporter Activity: 1.04
  Nes: Substrate Specific Transporter Activity: 0.9263
  Nes: Transcription Activator Activity: 0.7812
  Nes: Transcription Coactivator Activity: 0.5439
  Nes: Transcription Cofactor Activity: 1.217
  Nes: Transcription Corepressor Activity: 1.692
  Nes: Transcription Factor Activity: 1.217
  Nes: Transcription Factor Binding: 1.248
  Nes: Transcription Repressor Activity: 1.653
  Nes: Transferase Activity Transferring Alkyl Or Aryl Other Than Methyl Groups: 0.6606
  Nes: Transferase Activity Transferring Glycosyl Groups: 0.6701
  Nes: Transferase Activity Transferring Groups Other Than Amino Acyl Groups: 0.6753
  Nes: Transferase Activity Transferring One Carbon Groups: 0.7951
  Nes: Transferase Activity Transferring Sulfur Containing Groups: 0.8435
  Nes: Transition Metal Ion Binding: 1.037
  Nes: Translation Factor Activity Nucleic Acid Binding: 0.81
  Nes: Translation Initiation Factor Activity: 0.4449
  Nes: Translation Regulator Activity: 0.9216
  Nes: Transmembrane Receptor Protein Kinase Activity: 0.7564
  Nes: Transmembrane Receptor Protein Tyrosine Kinase Activity: 0.9533
  Nes: Transmembrane Transporter Activity: 1.011
  Nes: Ubiquitin Protein Ligase Activity: 0.7536
  Nes: Zinc Ion Binding: 0.9797
